Results published in ChEMBL document CHEMBL1127074, “Novel hypotensive agents from Verbesina caracasana. 2. Synthesis and pharmacology of caracasanamide” (1993).

Experiments:
Rattus norvegicus [1] = assay: Tested for the change in systolic blood pressure administered at 25 ug/kg intravenously in anesthetized rats; type: functional, Artery
Rattus norvegicus [2] = assay: Tested for the change in diastolic blood pressure administered at 25 ug/kg intravenously in anesthetized rats; type: functional, Artery
Rattus norvegicus [3] = assay: Tested for change in heart rate administered at 25 uM/kg iv in anesthetized rats; type: functional
Rattus norvegicus [4] = assay: Maximum rate of rise of the left ventricular isovolumetric pressure administered at 25 uM/kg iv in anesthetized rats; type: functional, Heart left ventricle
Rattus norvegicus [5] = assay: Tested for the change in diastolic blood pressure administered at 12 ug/kg intravenously in anesthetized rats; type: functional, Artery
Rattus norvegicus [6] = assay: Tested for the change in systolic blood pressure administered at 12 ug/kg intravenously in anesthetized rats; type: functional, Artery
Rattus norvegicus [7] = assay: Tested for change in heart rate administered at 12 uM/kg iv in anesthetized rats; type: functional
Rattus norvegicus [8] = assay: Maximum rate of rise of the left ventricular isovolumetric pressure administered at 12 uM/kg iv in anesthetized rats; type: functional, Heart left ventricle
Rattus norvegicus [9] = assay: Tested for the change in diastolic blood pressure administered at 5 ug/kg intravenously in anesthetized rats; type: functional, Artery
Rattus norvegicus [10] = assay: Tested for change in heart rate administered at 5 uM/kg iv in anesthetized rats; type: functional
Rattus norvegicus [11] = assay: Maximum rate of rise of the left ventricular isovolumetric pressure administered at 5 uM/kg iv in anesthetized rats; type: functional, Heart left ventricle
Rattus norvegicus [12] = assay: Tested for the change in systolic blood pressure administered at 5 ug/kg intravenously in anesthetized rats; type: functional, Artery
Rattus norvegicus [13] = assay: Tested for the change in diastolic blood pressure administered at 8 ug/kg intravenously in anesthetized rats; type: functional, Artery
Rattus norvegicus [14] = assay: Tested for change in heart rate administered at 8 uM/kg iv in anesthetized rats; type: functional
Rattus norvegicus [15] = assay: Maximum rate of rise of the left ventricular isovolumetric pressure administered at 8 uM/kg iv in anesthetized rats; type: functional, Heart left ventricle
Rattus norvegicus [16] = assay: Tested for the change in systolic blood pressure administered at 8 ug/kg intravenously in anesthetized rats; type: functional, Artery

SMILES: N=C(N)NCCN1CCCCCCC1 [GUANETHIDINE]
- Blood pressure (Rattus norvegicus [1]): -27 mmHg
- Blood pressure (Rattus norvegicus [2]): -19 mmHg
- Heart rate (Rattus norvegicus [3]): -18 beats min-1
- dp/dt (Rattus norvegicus [4]): -863 mmHg s-1

SMILES: C[N+](C)(C)CCCCCC[N+](C)(C)C.[Cl-].[Cl-] [HEXAMETHONIUM CHLORIDE]
- Blood pressure (Rattus norvegicus [5]): -34 mmHg
- Blood pressure (Rattus norvegicus [6]): -44 mmHg
- Heart rate (Rattus norvegicus [7]): -48 beats min-1
- dp/dt (Rattus norvegicus [8]): -4040 mmHg s-1

SMILES: COc1ccc(Cc2nccc3cc(OC)c(OC)cc23)cc1OC [PAPAVERINE]
- Blood pressure (Rattus norvegicus [9]): -18 mmHg
- Heart rate (Rattus norvegicus [10]): -21 beats min-1
- dp/dt (Rattus norvegicus [11]): -604 mmHg s-1
- Blood pressure (Rattus norvegicus [12]): -23 mmHg

SMILES: COC(=O)[C@H]1[C@H]2C[C@@H]3c4[nH]c5cc(OC)ccc5c4CCN3C[C@H]2C[C@@H](OC(=O)c2cc(OC)c(OC)c(OC)c2)[C@@H]1OC [RESERPINE]
- Blood pressure (Rattus norvegicus [13]): -24 mmHg
- Heart rate (Rattus norvegicus [14]): -47 beats min-1
- dp/dt (Rattus norvegicus [15]): -1580 mmHg s-1
- Blood pressure (Rattus norvegicus [16]): -31 mmHg
